# Measurements reported in article PMC5458211, “Mitochondrial VDAC1-based peptides: Attacking oncogenic properties in glioblastoma” (Oncotarget, 2017).
# What was measured:
# [1] = Blood-brain barrier crossing in the intracranial xenograft model; type: in vivo, mouse; settings: i.v.; concluded from intracranial tumor model
# Description: B. U-87MG cells (2×10^5) were incubated for 12 h with the indicated concentrations of DMSO, Retro-Tf-D-LP4 peptide (Pep), or Retro-Tf-D-LP4 encapsulated in PLGA nanoparticles (PLGA-Pep). Samples of Retro-Tf-D-LP4 encapsulated in PLGA nanoparticles were centrifuged (15000g, 5 min) to separate the supernatant (Sup), containing free peptide, and the pellet, containing encapsulated Retro-Tf-D-LP4 peptide. Cell death was analyzed by PI staining and FACS analysis. C. Graphical representation of the orthotopic animal experiment. D. MRI imaging of brains 29 days post-intravenal treatment start with DMSO (1.05%), Retro-Tf-D-LP4 (10 mg/kg) encapsulated in PLGA nanoparticles or Tf-D-Retro-LP4 peptide (10 mg/Kg), as described in Materials and Methods available online in Supplemental information. E. Calculated tumor volumes after 20 (dark grey bars) and 29 (light grey bars) days post-treatment start. Results = mean ± SE (n = 6) (* p<0.05, *** p<0.001). F. Kaplan-Meier survival curves showing statistically significant differences in survival curves between the PBS/DMSO and Retro-Tf-D-LP4 treated mice. […]
# For the intracranial-orthotopic xenograft mouse model, U-87MG cells (8×10^4) were engrafted into a nude mouse brain using a stereotactic device. […] Tumor volume was analyzed using VivoQuant 2.10 software.
# [2] = system: apoptosis-related proteins; assay: Expression of apoptosis-related proteins in treated tumors (IHC, immunoblot); type: in vivo, human U-87MG in nude mice; settings: treated tumors vs PBS/DMSO
# Text: Red color indicates PI nuclear staining and green color TUNEL staining. B. Representative sections from PBS/DMSO- and peptide-TTs IHC stained for p53, Cyto c, AIF, Caspase 3 and Smac/Diablo and then hematoxylin-stained and visualized by microscopy. C. Tissue lysates obtained from controls and several Tf-D-LP4-TTs were immunoblotted for p53, Caspase 8, Cyto c, Smac/Diablo, Caspase 3 and Bcl-2. D. Quantitative analysis of immunoblots is shown (n=2-4).
# Formalin-fixed, paraffin-embedded sections of control and peptide-TTs were hematoxylin-eosin stained, probed with appropriate antibodies via IHC staining or immunoblotting of cells and tissue extracts. […]
# HBSS solution. Cells or tumor tissue were lysed using lysis buffer (50 mM Tris-HCl, pH 7.5, 150 mM NaCl, 1
# Xenograft and intracranial-orthotopic mouse mM EDTA, 1.5 mM MgCl2, 10% glycerol, 1% Triton models X-100, supplemented with a protease inhibitor cocktail
# (Calbiochem, UK). Cell lysates were then centrifuged at U-87MG glioblastoma cells (3 x106) were inoculated 600xg (10 min at 4°C) and samples (10-40 μg of protein) s.c. into the hind leg ﬂanks of athymic eight-week old were subjected to SDS-PAGE and immunoblotting male nude mice (Envigo). Thirteen days post-inoculation, using various primary antibodies (sources and dilutions tumor volume was measured and calculated (100-130 as detailed in supplementary Table 2), followed by mm3) and mice were randomized into three groups (5 the appropriate HRP-conjugated secondary antibodies mice/group). Each treatment substance was injected into (i.e., anti-mouse, anti-rabbit or anti-goat). Blots the established s,c. tumors using PBS containing 0.26% were developed using enhanced chemiluminescence DMSO or peptide in PBS, 0.26% DMSO/20 μM). The (Biological Industries). Band intensities were analyzed xenografts were injected 20 µl per tumor (2 points) every by densitometry using Multi Gauge software (Fujifilm) two days. Beginning on the day of inoculation, mouse and the values were normalized to the intensities of the weight and tumor volume were monitored twice a week appropriate β-actin signal that served as a loading control. for a period of 23 days using a digital caliper. At the end of the experiments, the mice were sacrificed, tumors were IHC of tumor tissue sections excised and ex vivo weight was determined. Half of each tumor was either fixed in 4% buffered formaldehyde, IHC staining was performed on 5 μm-thick paraffin-embedded and processed for IHC or frozen in formalin-fixed and paraffin-embedded tumor tissue liquid nitrogen for later immunoblot analysis. sections. The sections were deparaffinized by placing To generate an intracranial-orthotopic mouse model, the slides at 60°C for 1 h and using xylene. […]
# (Stoelting, Wood Dale, IL). A middle incision was made c, cytochrome c oxidase subunit IVc, GAPDH, Glut1, on the skull and a burr hole was introduced 0.5 mm HK-II, Klf4, LDH, Nestin, NGFR, P53, SMAC/Diablo, anterior to the bregma and 2.5 mm lateral to the midline Sox2, S100b, VDAC1) was performed in 0.01 M citrate using a drill (Stoelting). A 31-gauge needle loaded with buffer (pH 6.0). For CD31, HK-I and Ki-67, antigen 10 µL PBS was used to deliver tumor cells. The needle retrieval was performed in 10 mM Tris-EDTA (pH 9) and tip was inserted into the brain 3 mm deep, relative to the 0.5 M Tris (pH 10), for 30 minutes each at 95-98°C. After skull surface, and maintained at this depth for 2 minutes washing sections in PBS containing 0.1% Triton-X100 before injection of tumor cells. Under sterile conditions, (pH 7.4), non-specific antibody binding was reduced by a 3 µL solution containing U-87MG (8×104) cells was incubating the sections in 10% normal goat serum for 2 injected into the brain parenchyma over a period of […]. After decanting excess serum, sections were incubated
# (1 picture or pasted object on this page, not shown here)
SMILES,crossing of the blood-brain barrier / reaching the brain [1],Bcl-2 level [2],Caspase 3 expression increase [2],Caspase 8 expression increase [2],Cyto c expression increase [2],SMAC/DIABLO expression [2],p53 expression increase [2]
CC[C@H](C)[C@H](NC(=O)[C@H](Cc1ccc(O)cc1)NC(=O)[C@@H]1CCCN1C(=O)[C@H](CCCNC(=N)N)NC(=O)[C@H](Cc1c[nH]cn1)NC(=O)[C@H](CO)NC(=O)[C@H](Cc1c[nH]c2ccccc12)NC(=O)[C@@H](NC(=O)[C@H](Cc1c[nH]c2ccccc12)NC(=O)[C@H](CCC(=O)O)NC(=O)[C@@H](CCCCN)NC(=O)[C@@H](CCCCN)NC(=O)[C@@H](CC(C)C)NC(=O)[C@@H](CCC(=O)O)NC(=O)[C@H](NC(=O)[C@@H](C)NC(=O)[C@H](NC(=O)[C@@H](CC(N)=O)NC(=O)[C@@H](CC(C)C)NC(=O)[C@@H](C)NC(=O)[C@@H](Cc1c[nH]c2ccccc12)NC(=O)[C@H](NC(=O)[C@@H](C)NC(=O)CNC(=O)[C@@H](CC(N)=O)NC(=O)[C@@H](CO)NC(=O)[C@@H](CC(N)=O)NC(=O)[C@H](CCCCN)NC(=O)[C@H](Cc1c[nH]c2ccccc12)NC(=O)[C@@H](NC(=O)[C@H](Cc1c[nH]c2ccccc12)NC(=O)[C@@H](N)CCCCN)[C@@H](C)O)[C@H](C)O)C(C)C)[C@H](C)O)[C@@H](C)O)C(=O)N[C@@H](C)C(=O)N[C@@H](Cc1c[nH]cn1)C(=O)O [Retro-Tf-D-LP4],able to cross the blood-brain barrier in vivo,–,–,–,–,–,–
CC[C@H](C)[C@H](NC(=O)[C@H](C)NC(=O)[C@@H](N)Cc1c[nH]cn1)C(=O)N[C@@H](Cc1ccc(O)cc1)C(=O)N1CCC[C@H]1C(=O)N[C@@H](CCCNC(=N)N)C(=O)N[C@@H](Cc1c[nH]cn1)C(=O)N[C@@H](CO)C(=O)N[C@@H](Cc1c[nH]c2ccccc12)C(=O)N[C@H](C(=O)N[C@@H](Cc1c[nH]c2ccccc12)C(=O)N[C@@H](CCC(=O)O)C(=O)N[C@H](CCCCN)C(=O)N[C@H](CCCCN)C(=O)N[C@H](CC(C)C)C(=O)N[C@H](CCC(=O)O)C(=O)N[C@@H](C(=O)N[C@H](C)C(=O)N[C@@H](C(=O)N[C@H](CC(N)=O)C(=O)N[C@H](CC(C)C)C(=O)N[C@H](C)C(=O)N[C@H](Cc1c[nH]c2ccccc12)C(=O)N[C@@H](C(=O)N[C@H](C)C(=O)NCC(=O)N[C@H](CC(N)=O)C(=O)N[C@H](CO)C(=O)N[C@H](CC(N)=O)C(=O)N[C@@H](CCCCN)C(=O)N[C@@H](Cc1c[nH]c2ccccc12)C(=O)N[C@H](C(=O)N[C@@H](Cc1c[nH]c2ccccc12)C(=O)N[C@@H](CCCCN)C(=O)O)[C@@H](C)O)[C@H](C)O)C(C)C)[C@H](C)O)[C@@H](C)O [Tf-D-LP4],–,almost undetectable,> 5 fold,about 20 fold,over 10 fold,much higher,over 12 fold
